# According to patent US20110081315A1, “NOVEL MACROCYCLIC INHIBITORS OF HEPATITIS C VIRUS REPLICATION” (INTERMUNE, INC., priority 2009, published 2011):
# Like-named read-outs stand apart in the source and are kept apart here.
# Details: rcm bond, Zhan catalyst, toluene, 65.0 °C
Compound,"ring closure, yield of all isomers (from C=CCCCCC[C@H](Nc1ccc(C(F)(F)F)cc1)C(=O)N1C[C@H](Oc2ncc3ncn(C(C)C)c3n2)C[C@H]1C(=O)N[C@]1(C(=O)NS(=O)(=O)C2(C)CC2)C[C@H]1C=C, 7.78 mM, 1.5 h)","ring closure, yield of all isomers (from C=CCCCCC[C@H](Nc1cccc(F)c1)C(=O)N1C[C@H](Oc2nc(-c3nc(C(C)C)cs3)nc3c(C)c(OC)ccc23)C[C@H]1C(=O)N[C@]1(C(=O)NS(=O)(=O)C2(C)CC2)C[C@H]1C=C, 7.24 mM, 0.67 h)"
CC(C)n1cnc2cnc(O[C@@H]3C[C@H]4C(=O)N[C@]5(C(=O)NS(=O)(=O)C6(C)CC6)C[C@H]5C=CCCCCC[C@H](Nc5ccc(C(F)(F)F)cc5)C(=O)N4C3)nc21,29%,
COc1ccc2c(O[C@@H]3C[C@H]4C(=O)N[C@]5(C(=O)NS(=O)(=O)C6(C)CC6)C[C@H]5C=CCCCCC[C@H](Nc5cccc(F)c5)C(=O)N4C3)nc(-c3nc(C(C)C)cs3)nc2c1C,,24%
